Source: patent publication US4645773A, “β-carboline-3-oxadiazolyl derivatives, and their use as psychotropic agents” (Schering Aktiengesellschaft, priority 1984, dated 1987)

Columns and labels:
[1] = tested on: benzodiazepine receptor; experiment: in vivo inhibition of 3H-flunitrazepam binding to benzodiazepine receptors in mouse forebrain; details: mice, usually subcutaneous, 3H-flunitrazepam i.v. 15 min later, killed after further 20 min
Experimental: The ED50 value represents the dose (mg/kg) of a test substance which causes the specific binding of flunitrazepam to benzodiazepine receptors in a living brain to be reduced to 50% of the control value. Such an in vivo test is carried out as follows:
Groups of mice are injected with the test substance at different doses and usually subcutaneously. 15 minutes later ^3 H-flunitrazepam is administered intravenously to the mice and after further 20 minutes the mice are killed. Their forebrain membranes are removed and the radioactivity of these forebrain membranes is measured by scintillation counting. The ED50 value is determined from dose-response curves.

[2] = target: benzodiazepine receptor; experiment: displacement of 3H-flunitrazepam specific binding to benzodiazepine receptors (in vitro), rat forebrain membranes; details: rat forebrain suspension, 3H-flunitrazepam 1.0 nM, 0° C., 40-60 min, pH 7.1
Experimental: These sites are called benzodiazepine receptors. The displacement activity of the compounds of the invention has been determined by determining the IC50 value and the ED50 value.
The IC50 value represents the concentration which causes a displacement of 50% of the specific binding of ^3 H-flunitrazepam (1.0 nM, 0° C.) in samples comprising a total volume of 0.55 ml of a suspension of brain membrane, e.g from rats.
The displacement test is performed as follows:
0.50 ml of a suspension of non-treated rat forebrain in 25 mM KH2 PO4, pH=7.1 (5-10 mg tissue/sample) is incubated for 40-60 minutes at 0° C. together with ^3 H-diazepam (specific activity 87 Ci/mmol, 1.0 nM) or ^3 H-flunitrazepam (specific activity 87 Ci/mmol, 1.0 nM). After incubation, the suspension is filtered through "Whatman GF/C" glass fiber filters, the residue washed twice with cold buffer solution and the radioactivity measured by scintillation counting.
The test is repeated except that prior to the addition of the radioactive labelled benzodiazepine, a given amount or an excessive amount of the compound, the displacement capability of which is to be determined, is added. Based on the data obtained the IC50 value can be calculated.

`COCc1c(-c2nc(C)no2)ncc2[nH]c3cccc(OCc4ccccc4)c3c12` was tested, and the “inhibition of 3H-flunitrazepam binding, ED50 (in vivo)” value (shortened to “inhibition … (in vivo)”) [1] was 0.9 mg/kg and the “Affinity for the benzodiazepine receptor, inhibition of 3H-flunitrazepam binding, IC50 (in vitro)” value [2] was 0.4 ng/mL.
With `CCc1nc(-c2ncc3[nH]c4cccc(OCc5ccccc5)c4c3c2COC)no1` the “inhibition … (in vivo)” value [1] was 1.0 mg/kg and the “Affinity for the benzodiazepine receptor, inhibition of 3H-flunitrazepam binding, IC50 (in vitro)” value [2] was 0.5 ng/mL.
`CCOCc1cccc2[nH]c3cnc(-c4nc(CC)no4)c(C)c3c12` was tested, and the “inhibition … (in vivo)” value [1] was 0.4 mg/kg and the “Affinity for the benzodiazepine receptor, inhibition of 3H-flunitrazepam binding, IC50 (in vitro)” value [2] was 0.26 ng/mL.
With `CCc1noc(-c2ncc3[nH]c4cccc(OC(C)C)c4c3c2C)n1` the “inhibition … (in vivo)” value [1] was 0.4 mg/kg and the “Affinity for the benzodiazepine receptor, inhibition of 3H-flunitrazepam binding, IC50 (in vitro)” value [2] was 0.5 ng/mL.
In the case of `CCc1noc(-c2ncc3[nH]c4cccc(OC(C)C)c4c3c2COC)n1`, the “inhibition … (in vivo)” value [1] is reported as 0.2 mg/kg and the “Affinity for the benzodiazepine receptor, inhibition of 3H-flunitrazepam binding, IC50 (in vitro)” value [2] is reported as 0.2 ng/mL.
`CCc1noc(-c2ncc3[nH]c4cccc(OC5C=CCCC5)c4c3c2COC)n1` (stereo not drawn) was tested, and the “inhibition … (in vivo)” value [1] was 0.75 mg/kg and the “Affinity for the benzodiazepine receptor, inhibition of 3H-flunitrazepam binding, IC50 (in vitro)” value [2] was 0.4 ng/mL.
In the case of `CCc1noc(-c2ncc3[nH]c4cccc(OC5CCC5)c4c3c2COC)n1`, the “inhibition … (in vivo)” value [1] is reported as 0.6 mg/kg and the “Affinity for the benzodiazepine receptor, inhibition of 3H-flunitrazepam binding, IC50 (in vitro)” value [2] is reported as 0.4 ng/mL.
`CCCOc1cccc2[nH]c3cnc(-c4nc(CC)no4)c(COC)c3c12` [3-[5-(3-ethyl-1,2,4-oxadiazole)-yl]-4-methoxymethyl-5-propoxy-β-carboline] was tested, and the “inhibition … (in vivo)” value [1] was 1.4 mg/kg and the “Affinity for the benzodiazepine receptor, inhibition of 3H-flunitrazepam binding, IC50 (in vitro)” value [2] was 0.3 ng/mL.
With `CCc1noc(-c2cc3c(cn2)[nH]c2ccc(C#CCN(C)C)cc23)n1` [3-[5-(3-ethyl-1,2,4-oxadiazole)-yl]-6-(3-dimethylaminopropargyl)-β-carboline] the “inhibition … (in vivo)” value [1] was 7.9 mg/kg and the “Affinity for the benzodiazepine receptor, inhibition of 3H-flunitrazepam binding, IC50 (in vitro)” value [2] was 0.4 ng/mL.
